Measurements as given in patent publication US7759344B2, “Bis-aryl amide derivatives and methods of use” (priority 2007, dated 2010).

Target: T1, c-Met (Homo sapiens, UniProt P08581)
T1 construct: A PCR product covering residues 1058-1365 of c-Met (c-Met kinase domain) is generated; made in house; host or cells: Baculovirus cells (baculovirus/insect-cell expression)
Assay: c-Met Receptor Assay (HTRF kinase assay with GST-cMet (P) enzyme, gastrin and ATP)
Format: biochemical
Method: Cloning, Expression and Purification of c-Met Kinase Domain
Alternative purification of human GST-cMET from Baculovirus cells
The resin is washed with 10 column volumes (100 mL) of Lysis Buffer. […] The elution is collected as 15 mL fractions. Aliquots of the elution fractions are run on SDS PAGE (12% Tris Glycine gel, Invitrogen, #EC6005BOX). The gel is stained with 0.25% Coomassie Blue stain. Fractions with GST-cMET are concentrated with a Vivaspin 20 mL Concentrator (#VS2002; […]) to a final volume less than 2.0 ml. […] The GST-cMET is eluted with an isocratic run of the above buffer, with the eluent collected in 1.0 mL fractions. Fractions with significant OD280 readings are run on another 12% Tris Glycine gel. The peak tubes with GST-cMET are pooled and the OD280 is read with the column buffer listed above as the blank buffer. • Phosphorylation of the purified GST-cMET is performed by incubating the protein for 3 h at RT with the following:
After incubation, the solution is concentrated in a Vivaspin 20 ml Concentrator to a volume less than 2.00 ml. The solution is applied to the same Superdex 75 16/60 column used above after re-equilibration. The GST-cMET is eluted as described above. The elution fractions corresponding to the first eluted peak on the chromatogram are run on a 12% Tris Glycine gel, as above, to identify the fractions with GST-cMET. Fractions are pooled and the OD280 is read with the column buffer used as the blank.
A Kinase reaction Buffer is prepared as follows:
When the assay is carried out, freshly add:
The HTRF Buffer Contains: • 50 mM Tris-HCl (pH 7.5), 100 mM NaCl, 0.1% BSA, 0.05% Tween 20,5mM EDTA
Dilute GST-cMet (P) Enzyme in Kinase Buffer as Follows:
2. Assay Plate Preparation:
Then incubate the plate at RT for 30 min.
3. Prepare Gastrin and ATP working solution in kinase reaction buffer as follows:
Use Biomek FX to add 20 μl ATP and Gastrin working solution to the assay plate to start reaction, incubate the plate at RT for 1 h. 4. Transfer 5 μL reaction product at the end of 1 h into 80 μL HTRF buffer in black plate

T1 sequence (P08581 1058-1365): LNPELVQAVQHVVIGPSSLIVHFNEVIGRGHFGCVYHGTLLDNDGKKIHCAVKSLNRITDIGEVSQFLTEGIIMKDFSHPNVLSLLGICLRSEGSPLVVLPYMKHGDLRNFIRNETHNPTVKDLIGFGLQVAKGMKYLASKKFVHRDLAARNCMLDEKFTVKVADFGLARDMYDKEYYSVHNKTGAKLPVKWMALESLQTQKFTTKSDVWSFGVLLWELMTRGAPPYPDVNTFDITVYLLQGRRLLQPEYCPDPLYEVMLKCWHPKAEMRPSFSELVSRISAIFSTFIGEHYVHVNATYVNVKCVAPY

Structure (SMILES)	Ki [nM]
Cc1c(C(=O)Nc2ccc(-c3cccc4[nH]nc(N)c34)c(F)c2)c(=O)n(-c2ccccc2)n1C [Example 1, N-(4-(3-amino-1H-indazol-4-yl)-3-fluorophenyl)-1,5-dimethyl-3-oxo-2-phenyl-2,3-dihydro-1H-pyrazole-4-carboxamide]	21
Cc1c(C(=O)Nc2ccc(-c3cccc4c(N)nccc34)c(F)c2)c(=O)n(-c2ccccc2)n1CC(C)(C)O [Example 3, N-(4-(1-amino-5-isoquinolinyl)-3-fluorophenyl)-1-(2-hydroxy-2-methylpropyl)-5-methyl-3-oxo-2-phenyl-2,3-dihydro-1H-pyrazole-4-carboxamide]	56
Cc1c(C(=O)Nc2ccc(-c3cccc4cnccc34)c(F)c2)c(=O)n(-c2ccccc2)n1C [Example 4, N-(3-fluoro-4-(5-isoquinolinyl)phenyl)-1,5-dimethyl-3-oxo-2-phenyl-2,3-dihydro-1H-pyrazole-4-carboxamide]	73
Cc1c(C(=O)Nc2ccc(-c3cccc4cnccc34)cc2F)c(=O)n(-c2ccccc2)n1CC(C)(C)O [Example 7, N-(2-fluoro-4-(5-isoquinolinyl)phenyl)-1-(2-hydroxy-2-methylpropyl)-5-methyl-3-oxo-2-phenyl-2,3-dihydro-1H-pyrazole-4-carboxamide]	156
Cc1c(C(=O)Nc2ccc(-c3nncc4cnccc34)c(F)c2)c(=O)n(-c2ccccc2)n1C [Example 9, N-(3-fluoro-4-pyrido[3,4-d]pyridazin-1-ylphenyl)-1,5-dimethyl-3-oxo-2-phenyl-2,3-dihydro-1H-pyrazole-4-carboxamide]	2380
Cc1cc(NC(=O)c2c(C)n(CC(C)(C)O)n(-c3ccccc3)c2=O)ccc1-c1cccc2cnccc12 [Example 10, 1-(2-Hydroxy-2-methylpropyl)-N-(4-(5-isoquinolinyl)-3-methylphenyl)-5-methyl-3-oxo-2-phenyl-2,3-dihydro-1H-pyrazole-4-carboxamide]	373
Cc1c(C(=O)Nc2ccc(-c3cccc4cnccc34)c(F)c2)c(=O)n(-c2ccccc2)n1C[C@H](C)O [Example 11, N-(3-fluoro-4-(isoquinolin-5-yl)phenyl)-1-((S)-2-hydroxypropyl)-5-methyl-3-oxo-2-phenyl-2,3-dihydro-1H-pyrazole-4-carboxamide]	47
Cc1c(C(=O)Nc2ccc(-c3cccc4cnccc34)c(F)c2)c(=O)n(-c2ccccc2)n1C[C@@H](C)O [Example 12, N-(3-fluoro-4-(isoquinolin-5-yl)phenyl)-1-((R)-2-hydroxypropyl)-5-methyl-3-oxo-2-phenyl-2,3-dihydro-1H-pyrazole-4-carboxamide]	62
Cc1c(C(=O)Nc2ccc(-c3cccc4c(NCCN(C)C)nccc34)cc2)c(=O)n(-c2ccccc2)n1CC(C)(C)O [Example 14, N-(4-(1-(2-(dimethylamino)ethylamino)isoquinolin-5-yl)phenyl)-1-(2-hydroxy-2-methylpropyl)-5-methyl-3-oxo-2-phenyl-2,3-dihydro-1H-pyrazole-4-carboxamide]	> 20000

Continued, values first:

Ki [nM]	Structure (SMILES)
28	Cc1c(C(=O)Nc2ccc(-c3cccc4c(N)nccc34)c(F)c2)c(=O)n(-c2ccccc2)n1C [Example 2, N-(4-(1-amino-5-isoquinolinyl)-3-fluorophenyl)-1,5-dimethyl-3-oxo-2-phenyl-2,3-dihydro-1H-pyrazole-4-carboxamide]
85	Cc1c(C(=O)Nc2ccc(-c3cccc4[nH]nc(N)c34)c(F)c2)c(=O)n(-c2ccccc2)n1CC(C)(C)O [Example 5, N-(4-(3-amino-1H-indazol-4-yl)-3-fluorophenyl)-1-(2-hydroxy-2-methylpropyl)-5-methyl-3-oxo-2-phenyl-2,3-dihydro-1H-pyrazole-4-carboxamide]
142	Cc1c(C(=O)Nc2ccc(-c3cccc4cnccc34)c(F)c2)c(=O)n(-c2ccccc2)n1CC(C)(C)O [Example 6, N-(3-fluoro-4-(5-isoquinolinyl)phenyl)-1-(2-hydroxy-2-methylpropyl)-5-methyl-3-oxo-2-phenyl-2,3-dihydro-1H-pyrazole-4-carboxamide]
252	Cc1c(C(=O)Nc2ccc(-c3cccc4[nH]nc(N)c34)cc2)c(=O)n(-c2ccccc2)n1CC(C)(C)O [Example 8, N-(4-(3-amino-1H-indazol-4-yl)phenyl)-1-(2-hydroxy-2-methylpropyl)-5-methyl-3-oxo-2-phenyl-2,3-dihydro-1H-pyrazole-4-carboxamide]
3290	Cc1c(C(=O)Nc2ccc(-c3cccc4c(NCCCN5CCOCC5)nccc34)cc2)c(=O)n(-c2ccccc2)n1CC(C)(C)O [Example 13, 1-(2-hydroxy-2-methylpropyl)-5-methyl-N-(4-(1-(3-morpholinopropylamino)-isoquinolin-5-yl)phenyl)-3-oxo-2-phenyl-2,3-dihydro-1H-pyrazole-4-carboxamide]
> 6670	Cc1c(C(=O)Nc2ccc(-c3cccc4c(N(C)CCN(C)C)nccc34)cc2)c(=O)n(-c2ccccc2)n1CC(C)(C)O [Example 15, N-(4-(1-((2-(dimethylamino)ethyl)(methyl)amino)isoquinolin-5-yl)phenyl)-1-(2-hydroxy-2-methylpropyl)-5-methyl-3-oxo-2-phenyl-2,3-dihydro-1H-pyrazole-4-carboxamide]
1450	Cc1c(C(=O)Nc2ccc(-c3cccc4c(N(C)CCCN(C)C)nccc34)cc2)c(=O)n(-c2ccccc2)n1CC(C)(C)O [Example 16, N-(4-(1-((3-(dimethylamino)propyl)(methyl)amino)isoquinolin-5-yl)phenyl)-1-(2-hydroxy-2-methylpropyl)-5-methyl-3-oxo-2-phenyl-2,3-dihydro-1H-pyrazole-4-carboxamide]
